The values below come from US20220118117A1, “MODULATORS OF METABOTROPIC GLUTAMATE RECEPTOR 4” (The General Hospital Corporation, priority 2019, published 2022).

“And” between values parts separate entries of the source, which are not always exact repeats. Equal values may be shown once.

A short description of data set [1]: microsomal stability. The data set is classed as in vitro ADME, Sprague-Dawley rat. The conditions noted are these: rat liver microsomes, NADPH. Here is the method: First, Sprague-Dawley rat liver microsomes (0.5 mg/mL, Sigma-Aldrich, No. M9066) was incubated with PBS (50 mM, pH=7.4) in a reaction tube at 37° C. for 3 min. To the reaction tube were added the test compound (2 μM) and then cofactor, NADPH (1 mM), to start the reaction. The mixture was shaken in a water bath at 37° C. At different time points (0, 5, 10, 15, 30 min), aliquots (50 μL) were removed and added to 100 μl of cold acetonitrile with internal standard (25 μM) to quench the reaction. The precipitated material was by centrifugation (10,000×g, 10 min, 4° C.), and the supernatant was analyzed by RP-HPLC (Column: Phenomenex Luna© 5 μm, Cis, 100 Å, 250×4.6 mm). The RP-HPLC was carried out by using a 15-min gradient method: eluent A: 0.1% formic acid/H2O; eluent B: 0.1% formic acid/CH3CN; gradient: […]; 5% B to 95% B from 1 to 9 min, 95% B from 9 to 12 min, 95% to 5% B from 12 to 13 min, 5% B from 13 to 15 min; flow rate at 0.7 mL/min.
The in peak area ratio (test compound peak area at a time point/peak area at 0 min time point) was plotted against time and the gradient of the line was determined. Subsequently, the half-life (t1/2) was calculated as 0.693/k, where the elimination rate constant k equals to −gradient. V (μL/mg) was obtained as a ratio of volume of incubation […]/protein in the incubation (mg). Finally, the intrinsic clearance (CLint) (μL/min/mg protein) was calculated as V*0.693/t1/2.

In data set [2] the target is mGluR4 (Homo sapiens, UniProt Q14833). Description: competitive binding (radioligand replacement) assay with [3H]4 in mGluR4 transfected CHO cells. More on the design: expressed in transfected cells; host or cells: CHO cells. As to conditions: 2 nM [3H]4, read-out: IC50 (nM), affinity to mGluR4. Here is the method:
In Vitro mGluR4 Binding Assay. CHO cells expressing mGluR4 were used for all binding assay protocols. For competitive binding, 2 nM of [^3H]4 was used together with increased concentrations of test compounds ranging from 0.01 nM to 10 μM. Each test tube contained 50 000 freshly harvested CHO cells expressing mGluR4 cultured in HAMs cell culture medium with 100 nM of glutamate, penicillin-streptomycin (100 units), and 1 mM G418. [3H]4 (2 nM) was added to the cell extract with and without test compounds on ice and then incubated for 30 min at room temperature. Samples were centrifuged at 1200 rpm for 10 min at 4° C. and washed three times with a cold cell culture medium as a washing buffer. Samples were lysed by adding 100 μL of 0.5% NaOH and heated using a heating block (56° C., 30 min). Samples were cooled with an ice bath and transferred to Solvent-Saver scintillation vials (VWR International LLC.). To obtain binding parameters, the scintillation liquid (PerkinElmer, Optima Gold) was added prior to counting with a scintillation counter (Packard TriCarb Model, 1 min/vial). Nonspecific binding was determined using 10 μM of nonradioactive test compound, and specific binding was determined by extracting the nonspecific binding from total binding. All measurements were done in triplicate and analyzed with GraphPad Prism software (GraphPad Software Inc.).

Data set [3] is described as follows: plasma stability. In kind it is in vitro ADME. As to conditions: rat plasma; for Plasma stability, remaining of the intact test compound: 37° C. Here is the method:
Briefly, each tube is added 882 μL of 1:1 diluted rat plasma with phosphate buffer (pH 7.4). 18 μL (100 μM) of DMSO stock solution of the test compound (4, 13 and 15) or positive control compound (Diltiazem) was added to make a final compound concentration 2 μM in the plasma solution and final DMSO content 2%. The mixture was incubated at 37° C. After the incubation at 0, 15, 30, 60, and 120 min time points, aliquots of 50 μL samples were quenched with 100 μL of ice-cold acetonitrile with 25 μM of the internal reference (for HPLC analysis), respectively. The quenched samples were centrifuged at 10,000×g, and the supernatant was analyzed by HPLC. The percentage of remaining intact test compound was calculated by (peak area at the specific time point)/(peak area at 0 min)×100. Every sample was assayed three times.

Data set [4] in a line: solution stability. In kind it is physicochemical. Here is the method: Three pH values, 5, 7.4 and 9.4 were selected to check the solution stability. Aqueous solutions with different pH values were established using the following buffers: sodium acetate-KCl—HCl buffer (20 mM, pH 5.0), phosphate buffer (20 mM, pH 7.4), and boric acid-KCl—NaOH buffer (20 mM, pH 9.4). 891 μL of each pH buffer was placed in different tubes. 9 μL (1 mM) of the sample stock (4, 13, 15 and Diltiazem) was transferred to a particular buffer tube and mixed just before the time 0 min. The mixture was vortexed and incubated at 37° C. After the incubation at the different time points (0, 15, 30, 60, and 120 min), aliquots of 50 μL samples were quenched with 100 μL of ice-cold acetonitrile with 25 μM internal reference, respectively, and analyzed by HPLC. The percentage of the remaining intact compound was calculated by (peak area at the specific time point)/(peak area at 0 min)×100. Every sample was assayed three times.

Data set [5] addresses T1, mGluR4 (Rattus norvegicus, UniProt P31423).
T1 construct: from tissue; host or cells: brain of living male Sprague Dawley rats
Description: PET blocking studies of [18F]15 binding. The data set is classed as in vivo, Sprague Dawley rats. Here is the method: PET Imaging of [^18F]15 in Rats. Altogether 24 normal male Sprague Dawley rats were used for the imaging studies comprising 15 baseline studies and 15 blocking studies. Rats were anaesthetized with isoflurane/nitrous oxide (1.0-1.5% isoflurane, with oxygen flow of 1-1.5 L/min), and catheter was installed into tail vein for the administration of [^18F]15. Dynamic volumetric PET data was acquired with a PET-CT scanner for 60 min (Triumph-II, Tri-Foil Imaging, Northridge, Calif.). The vital signals such as heart rate and respiration rate were monitored during scanning period. PET data acquisition was started immediately after administration of radioactivity with the dose range of 18-34 MBq depending on the size of the rat followed by CT imaging to obtain anatomical information and data for attenuation correction of PET data. PET data was processed by using maximum-likelihood expectation-maximization (MLEM) algorithm with 30 iterations to dynamic volumetric images, and corrected for uniformity, scatter, and attenuation. The CT data was processed by the modified Feldkamp algorithm using matrix volumes of 512×512×512 and pixel size of […]. Co-registration of CT and PET images and analysis of PET images were carried out using PMOD3.2 software (PMOD Technology, Zurich, Switzerland).
For blocking studies, the same scanning protocols were used as for the baseline studies. For mGluR4 blocking experiments, 1, 2 or 3 mg/kg of 13 or 15 dissolved in a saline solution with 10% DMSO, 5% Tween-20 and 85% PBS was injected 1 min before iv administration of [^18F]15.

T1 sequence (P31423 33-912): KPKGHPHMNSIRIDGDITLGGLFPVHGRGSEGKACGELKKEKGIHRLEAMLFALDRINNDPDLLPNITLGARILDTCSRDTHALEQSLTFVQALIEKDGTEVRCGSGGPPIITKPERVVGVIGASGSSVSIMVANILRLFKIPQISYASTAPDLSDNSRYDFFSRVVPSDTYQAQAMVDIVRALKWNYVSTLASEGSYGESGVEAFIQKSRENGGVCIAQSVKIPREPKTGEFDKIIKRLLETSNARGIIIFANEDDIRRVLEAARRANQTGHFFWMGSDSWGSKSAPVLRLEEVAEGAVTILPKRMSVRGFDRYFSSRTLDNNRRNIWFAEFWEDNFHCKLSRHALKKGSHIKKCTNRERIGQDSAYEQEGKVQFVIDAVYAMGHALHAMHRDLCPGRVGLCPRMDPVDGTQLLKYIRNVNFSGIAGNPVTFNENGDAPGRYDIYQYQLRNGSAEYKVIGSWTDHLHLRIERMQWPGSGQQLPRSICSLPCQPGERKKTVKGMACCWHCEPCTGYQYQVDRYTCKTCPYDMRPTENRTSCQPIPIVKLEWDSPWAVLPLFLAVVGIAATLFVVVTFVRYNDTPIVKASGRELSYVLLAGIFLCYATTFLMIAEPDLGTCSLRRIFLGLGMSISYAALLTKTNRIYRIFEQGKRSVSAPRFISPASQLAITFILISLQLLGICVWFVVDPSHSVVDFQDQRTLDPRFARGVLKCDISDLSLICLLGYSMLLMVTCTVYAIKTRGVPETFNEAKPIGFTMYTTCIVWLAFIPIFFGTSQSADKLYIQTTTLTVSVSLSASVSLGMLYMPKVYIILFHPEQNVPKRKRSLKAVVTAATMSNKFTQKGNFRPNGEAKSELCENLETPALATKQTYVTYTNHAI
Chain of mGluR4 (Homo sapiens, UniProt Q14833) (Q14833 33-912): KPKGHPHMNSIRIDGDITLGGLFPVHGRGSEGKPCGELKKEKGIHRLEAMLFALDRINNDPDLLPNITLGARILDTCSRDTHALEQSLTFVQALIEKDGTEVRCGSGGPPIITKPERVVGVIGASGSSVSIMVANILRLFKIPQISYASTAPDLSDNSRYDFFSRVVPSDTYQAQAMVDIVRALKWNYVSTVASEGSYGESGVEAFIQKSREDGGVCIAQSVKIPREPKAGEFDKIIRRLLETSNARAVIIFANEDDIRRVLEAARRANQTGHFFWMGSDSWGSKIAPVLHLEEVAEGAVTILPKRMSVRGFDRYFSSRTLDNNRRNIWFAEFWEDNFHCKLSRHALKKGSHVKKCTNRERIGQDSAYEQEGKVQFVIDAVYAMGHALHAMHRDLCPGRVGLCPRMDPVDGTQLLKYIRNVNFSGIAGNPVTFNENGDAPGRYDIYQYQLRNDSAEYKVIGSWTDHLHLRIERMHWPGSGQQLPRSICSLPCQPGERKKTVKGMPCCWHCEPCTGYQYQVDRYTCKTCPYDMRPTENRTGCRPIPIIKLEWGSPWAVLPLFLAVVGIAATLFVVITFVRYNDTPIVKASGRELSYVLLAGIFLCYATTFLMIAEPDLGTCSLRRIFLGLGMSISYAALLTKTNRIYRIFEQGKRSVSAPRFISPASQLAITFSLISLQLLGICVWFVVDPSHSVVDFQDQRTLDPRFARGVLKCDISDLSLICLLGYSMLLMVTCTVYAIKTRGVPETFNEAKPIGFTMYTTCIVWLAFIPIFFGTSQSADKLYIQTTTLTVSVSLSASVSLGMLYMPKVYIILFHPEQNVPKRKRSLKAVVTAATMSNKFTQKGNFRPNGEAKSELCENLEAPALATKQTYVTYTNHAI

Turning to `COc1cc(NC(=O)c2ccccn2)ccc1Cl` [Compound 4], in data set [1], the “The microsome stability Clint (μL/min/mg protein)” value came to 96.2 μL/min/mg protein. In data set [1], the “The microsome stability t1/2” value was 14.41 min and 14.4 min. For the same compound, the IC50 in data set [2] amounted to 5.1 nM. Also, the “Plasma stability, remaining of the intact test compound” value (from here on “Plasma stability, remaining”) is reported as 100.00 ± 4.65% in data set [3] (0 min); 94.45 ± 1.65% in data set [3] (15 min); 97.56 ± 11.8% in data set [3] (30 min); 100.35 ± 8.04% in data set [3] (60 min); 98.21 ± 6.32% in data set [3] (120 min). For the same compound, the “The plasma stability, The intact ± SEM at 120 min (%)” value in data set [3] (120 min) was 98.2 ± 6.3%. The “The solution stability, The intact ± SEM at 120 min (%)” value is 92.7 ± 3.1% in data set [4] (pH = 5.0, 37° C.); 97.3 ± 1.1% in data set [4] (pH = 7.4, 37° C.); 89.1 ± 2.1% in data set [4] (pH = 9.4, 37° C.).
As to `CSc1cc(NC(=O)c2ccccn2)ccc1Cl` [Compound 13], the “The microsome stability Clint (μL/min/mg protein)” value in data set [1] was determined as 54.8 μL/min/mg protein. The “The microsome stability t1/2” value in data set [1] worked out at 25.30 min. For the same compound, the IC50 in data set [2] came out at 3.4 nM. Moreover, the “Plasma stability, remaining” value in data set [3] (0 min) stood at 100.00 ± 0.21%; in data set [3] (15 min), 95.34 ± 12.08%; in data set [3] (30 min), 95.27 ± 7.76%; in data set [3] (60 min), 93.62 ± 8.76%; in data set [3] (120 min) it was 91.52 ± 2.49%. Besides, the “The plasma stability, The intact ± SEM at 120 min (%)” value in data set [3] (120 min) is 91.5 ± 2.5%. In addition, the “The solution stability, The intact ± SEM at 120 min (%)” value in data set [4] (pH = 5.0, 37° C.) came to 85.9 ± 0.8%; in data set [4] (pH = 7.4, 37° C.), 87.9 ± 3.4%; in data set [4] (pH = 9.4, 37° C.), 89.3 ± 1.3%. The “blocking effect on [18F]15 binding” value in data set [5] (1 mg/kg, pre-administration) is reported as 25-30%. Also, the “blocking of [18F]15 binding in the whole brain” value in data set [5] (blocking agent injected 1 min before [18F]15) was 22-25%. For the same compound, the “blocking of [18F]15 binding in striatum” value in data set [5] (dose 1 mg/kg) is on record as 18%; in data set [5] (dose 2 mg/kg) it was 20%; in data set [5] (dose 3 mg/kg), 28%.
`COc1ccc([C@@H]2Sc3ccccc3N(CCN(C)C)C(=O)[C@@H]2OC(C)=O)cc1` [Diltiazem]: the “Plasma stability, remaining” value in data set [3] (0 min) worked out at 100.00 ± 8.98%; in data set [3] (15 min), 87.33 ± 9.53%; in data set [3] (30 min), 75.23 ± 4.03%; in data set [3] (60 min), 58.91 ± 13.39%; in data set [3] (120 min), 48.97 ± 10.63%. Besides, the “The plasma stability, The intact ± SEM at 120 min (%)” value in data set [3] (120 min) is given as 49.0 ± 10.6%. Also, the “The solution stability, The intact ± SEM at 120 min (%)” value is given as 94.7 ± 1.4% in data set [4] (pH = 5.0, 37° C.); 99.0 ± 5.7% in data set [4] (pH = 7.4, 37° C.); 69.8 ± 2.6% in data set [4] (pH = 9.4, 37° C.).
